Measured values reported in BindingDB's records for doi:10.1021/jm9000242 (Bristol Myers Squibb, 2009).
pIC50: −log10 of the molar value.

Biological target: T1, Corticotropin-releasing factor receptor 1 (Rattus norvegicus, UniProt P35353)
T1 sequence (P35353 whole entry): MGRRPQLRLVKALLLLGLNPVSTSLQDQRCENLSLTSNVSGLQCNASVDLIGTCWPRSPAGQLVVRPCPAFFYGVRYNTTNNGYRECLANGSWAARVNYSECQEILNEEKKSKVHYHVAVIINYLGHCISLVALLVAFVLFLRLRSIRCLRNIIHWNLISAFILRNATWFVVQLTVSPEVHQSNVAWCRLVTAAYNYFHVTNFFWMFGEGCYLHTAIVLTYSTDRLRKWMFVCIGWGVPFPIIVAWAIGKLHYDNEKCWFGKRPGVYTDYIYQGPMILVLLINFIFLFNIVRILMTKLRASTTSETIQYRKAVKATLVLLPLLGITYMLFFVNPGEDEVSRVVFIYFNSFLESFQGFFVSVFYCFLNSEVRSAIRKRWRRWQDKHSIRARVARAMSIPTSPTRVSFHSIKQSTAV
Assay: In Vitro Binding Autoradiography
Protocol: Naive rats were sacrificed by decapitation, and the brain and pituitary were collected. Slide-mounted brain sections were preincubated in an assay solution containing [125I]oCRF for 2 h at room temperature. Concentration-related displacement of test compound was assessed by including the compound in the incubation solution. The adjacent sections were incubated under the same conditions in the presence of 1 uM alpha-helical CRF for defining nonspecific binding for CRF receptor. Nonspecific binding for CRF1 receptors was defined by 1 uM DMP696 or CP-154,526. After incubation, the sections were rinsed, dried, and then placed in cassettes against iodine-sensitive storage phosphor-imaging screens (PerkinElmer Life Sciences), and the screens were then digitally scanned with a Cyclone storage phosphor-imaging system (PerkinElmer Life Sciences). Captured storage phosphor images were analyzed with OptiQuant Acquisition and Analysis software (PerkinElmer Life Sciences).

| pIC50 (pH 7.2, 23 °C) | pIC50 (25 °C) | SMILES |
| --- | --- | --- |
| 8.24 |  | CC[C@@H](C)Nc1nc(C)nc2c(-c3c(C)cc(OC)cc3OC)c(C)nn12 [Pyrazolo[1,5-a]-1,3,5-triazine, 12-16] |
|  | 8.37 | CCCCN(C)c1nc(C)nc2c(-c3c(C)cc(OC)cc3C)c(C)nn12 [Pyrazolo[1,5-a]-1,3,5-triazine, 12-32] |
| 8.83 |  | CCCN(CC1CC1)c1nc(C)nc2c(-c3c(C)cc(OC)cc3OC)c(C)nn12 [Pyrazolo[1,5-a]-1,3,5-triazine, 12-22] |
